Results published in publication PMC12207590, “Substrate Specificity of the Organic Cation Transporters MATE1 and MATE2K and Functional Overlap with OCT1 and OCT2” (Journal of Medicinal Chemistry, 2025).
Where two headings read alike, the source gives them in different places.

Key:
MATE1 = molecular target: T1, MATE1 (Homo sapiens, UniProt Q96FL8); experiment: Uptake ratio in MATE1-overexpressing HEK293 cells vs empty vector (2.5 μM, 1 min, HPLC-MS/MS); type: cell-based
T1 sequence (Q96FL8 1-570): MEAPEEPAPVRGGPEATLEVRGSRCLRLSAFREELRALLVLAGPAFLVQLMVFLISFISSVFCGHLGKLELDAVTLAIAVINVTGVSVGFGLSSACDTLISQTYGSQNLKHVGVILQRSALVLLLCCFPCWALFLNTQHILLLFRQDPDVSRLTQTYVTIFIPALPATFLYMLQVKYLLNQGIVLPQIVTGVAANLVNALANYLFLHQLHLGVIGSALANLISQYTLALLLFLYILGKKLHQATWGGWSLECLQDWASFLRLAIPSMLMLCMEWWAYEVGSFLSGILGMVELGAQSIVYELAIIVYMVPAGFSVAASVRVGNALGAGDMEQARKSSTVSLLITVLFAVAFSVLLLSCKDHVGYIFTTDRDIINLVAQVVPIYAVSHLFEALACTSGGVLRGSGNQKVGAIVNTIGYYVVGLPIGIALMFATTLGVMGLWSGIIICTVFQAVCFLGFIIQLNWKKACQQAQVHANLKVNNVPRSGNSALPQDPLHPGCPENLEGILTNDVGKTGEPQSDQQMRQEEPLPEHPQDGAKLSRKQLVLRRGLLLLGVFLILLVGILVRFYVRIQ

MATE2K = MATE2K (Homo sapiens, UniProt Q86VL8); experiment: Uptake ratio in MATE2K-overexpressing HEK293 cells vs empty vector (2.5 μM, 1 min, HPLC-MS/MS); type: cell-based
[1] = fold uptake over empty vector, 2.5 μM, 1 min
[2] = mean ratio of uptake in MATE1-overexpressing HEK293 cells vs empty vector, 2.5 μM, 1 min
[3] = mean ratio of uptake in MATE2K-overexpressing HEK293 cells vs empty vector, 2.5 μM, 1 min
[4] = uptake ratio MATE1-overexpressing vs empty-vector HEK293 cells, 2.5 μM, 1 min, mean
[5] = uptake ratio MATE2K-overexpressing vs empty-vector HEK293 cells, 2.5 μM, 1 min, mean

Chain of MATE2K (Q86VL8 1-566 isoform Q86VL8-3): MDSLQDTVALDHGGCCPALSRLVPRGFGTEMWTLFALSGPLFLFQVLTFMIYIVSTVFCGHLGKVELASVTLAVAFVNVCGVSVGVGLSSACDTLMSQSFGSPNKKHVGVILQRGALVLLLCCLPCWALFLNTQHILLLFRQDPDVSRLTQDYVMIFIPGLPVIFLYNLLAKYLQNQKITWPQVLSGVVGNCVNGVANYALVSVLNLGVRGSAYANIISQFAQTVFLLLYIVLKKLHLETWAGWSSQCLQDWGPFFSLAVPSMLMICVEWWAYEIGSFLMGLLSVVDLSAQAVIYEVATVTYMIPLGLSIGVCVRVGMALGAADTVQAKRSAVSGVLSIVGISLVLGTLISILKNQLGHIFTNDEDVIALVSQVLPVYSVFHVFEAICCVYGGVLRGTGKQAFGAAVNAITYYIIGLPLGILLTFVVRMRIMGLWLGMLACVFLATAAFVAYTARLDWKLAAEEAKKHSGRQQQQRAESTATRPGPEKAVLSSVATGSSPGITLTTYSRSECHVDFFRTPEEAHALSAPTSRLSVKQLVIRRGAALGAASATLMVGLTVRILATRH

SMILES: CN(C)CCc1ccc(O)cc1 [Hordenine]
- MATE1 ratio (MATE1): 1.16
- MATE2K ratio (MATE2K): 1.20

SMILES: OC(CNCC(O)C1CCc2cc(F)ccc2O1)C1CCc2cc(F)ccc2O1 (stereo not drawn) [Nebivolol]
- MATE1 ratio (MATE1; [1]): 1.41
- MATE2K ratio (MATE2K; [1]): 1.45

SMILES: CCCC(=O)OC(CC(=O)[O-])C[N+](C)(C)C (stereo not drawn) [Butyrylcarnitine]
- MATE1 ratio (MATE1; [1]): 0.82
- MATE1 (uptake ratio) (MATE1; [2]): 0.82
- MATE2K ratio (MATE2K; [1]): 1.09
- MATE2 (uptake ratio) (MATE2K; [3]): 1.09

SMILES: Nc1c(Br)cc(Br)cc1CN[C@H]1CC[C@H](O)CC1 [Ambroxol]
- MATE1 ratio (MATE1; [1]): 1.00
- MATE1 (uptake ratio) (MATE1; [2]): 1
- MATE2K ratio (MATE2K; [1]): 1.32
- MATE2 (uptake ratio) (MATE2K; [3]): 1.32

SMILES: CCCCNc1ccc(C(=O)OCCN(C)C)cc1 [Tetracaine]
- MATE1 (MATE1; [4]): 1.12
- MATE2 (MATE2K; [5]): 1.3

SMILES: NC(N)=NCCCC[C@H](N)C(=O)O [Homoarginine]
- MATE1 ratio (MATE1): 0.97
- MATE2K ratio (MATE2K): 0.97

SMILES: CC(C)(C)NCC(O)COc1cccc2c1CCC(=O)N2 (stereo not drawn) [Carteolol]
- MATE1 ratio (MATE1; [1]): 7.43
- MATE1 (uptake ratio) (MATE1; [2]): 7.43
- MATE2K ratio (MATE2K; [1]): 6.67
- MATE2 (uptake ratio) (MATE2K; [3]): 6.67

SMILES: CCN(CC)CCNC(=O)c1ccc(NS(C)(=O)=O)cc1 [Sematilide]
- MATE1 ratio (MATE1; [1]): 19.10
- MATE1 (MATE1; [4]): 19.1
- MATE2K ratio (MATE2K; [1]): 6.42
- MATE2 (MATE2K; [5]): 6.42

SMILES: CC(C)NCC(O)COc1cccc2ccccc12 [Propranolol (S), Propranolol]
- MATE1 (MATE1; [4]): 1.13
- MATE2 (MATE2K; [5]): 0.96

SMILES: Oc1ccc(CC2NCCc3cc(O)c(O)cc32)cc1 (stereo not drawn) [Higenamine]
- MATE1 ratio (MATE1; [1]): 14.55
- MATE2K ratio (MATE2K; [1]): 11.27

SMILES: NC(=O)NCCC[C@H](N)C(=O)O [Citrulline]
- MATE1 (uptake ratio) (MATE1): 0.77
- MATE1 ratio (MATE1): 0.77
- MATE2 (uptake ratio) (MATE2K): 1.26
- MATE2K ratio (MATE2K): 1.26

SMILES: C=CCN1CCCC1CNC(=O)c1cc(S(N)(=O)=O)cc(OC)c1OC (stereo not drawn) [Veralipride]
- MATE1 (MATE1; [4]): 6.39
- MATE2 (MATE2K; [5]): 4.21

SMILES: CNS(=O)(=O)CCc1ccc2[nH]cc(C3CCN(C)CC3)c2c1 [Naratriptan]
- MATE1 ratio (MATE1; [1]): 10.81
- MATE2K ratio (MATE2K; [1]): 8.34

SMILES: CC[N+](CC)(CC)CC [Tetraethylammonium]
- MATE1 (MATE1): 25.44
- MATE2 (MATE2K): 6.73

SMILES: N#CC[C@H](C1CCCC1)n1cc(-c2ncnc3[nH]ccc23)cn1 [Ruxolitinib]
- MATE1 ratio (MATE1; [1]): 1.13
- MATE1 (MATE1; [4]): 1.13
- MATE2K ratio (MATE2K; [1]): 0.99
- MATE2 (MATE2K; [5]): 0.99

SMILES: CN(CCN1CCC(OC(=O)Nc2ccccc2-c2ccccc2)CC1)C(=O)c1ccc(CN2CCC(C(N)=O)CC2)cc1 [Revefenacin]
- MATE1 ratio (MATE1; [1]): 1.39
- MATE1 (MATE1; [4]): 1.39
- MATE2K ratio (MATE2K; [1]): 1.17
- MATE2 (MATE2K; [5]): 1.17

SMILES: C[C@@H]1O[C@@]2(CS1)CN1CCC2CC1 [Cevimeline]
- MATE1 ratio (MATE1; [1]): 1.59
- MATE1 (uptake ratio) (MATE1; [2]): 1.59
- MATE2K ratio (MATE2K; [1]): 1.35
- MATE2 (uptake ratio) (MATE2K; [3]): 1.35

SMILES: COc1cc2c(cc1OC)[C@@]13CCN4CC5=CCO[C@H]6CC(=O)N2[C@H]1[C@H]6[C@H]5C[C@H]43 [Brucine]
- MATE1 (uptake ratio) (MATE1): 1.13
- MATE1 ratio (MATE1): 1.13
- MATE2 (uptake ratio) (MATE2K): 1.3
- MATE2K ratio (MATE2K): 1.30

SMILES: CC(C)NCC(O)COc1cccc2ccccc12 [Propranolol (R), Propranolol]
- MATE1 (MATE1; [4]): 1.16
- MATE2 (MATE2K; [5]): 1.04

SMILES: CC(=O)c1cc2cccc(OCC(O)CNC(C)C)c2o1 (stereo not drawn) [Befunolol]
- MATE1 ratio (MATE1; [1]): 1.39
- MATE1 (uptake ratio) (MATE1; [2]): 1.39
- MATE2K ratio (MATE2K; [1]): 1.38
- MATE2 (uptake ratio) (MATE2K; [3]): 1.38

SMILES: CNCC(O)c1ccc(O)cc1.CNCC(O)c1ccc(O)cc1.O=C(O)C(O)C(O)C(=O)O (stereo not drawn) [Synephrine]
- MATE1 (MATE1): 6.5
- MATE2 (MATE2K): 1.04

SMILES: CCN1C[C@]2(COC)[C@H](O)C[C@H](OC)[C@@]34[C@@H]5C[C@@]6(O)[C@H](OC(=O)c7ccccc7)[C@@H]5[C@@](OC(C)=O)([C@@H]([C@H](OC)[C@H]23)[C@@H]14)[C@@H](O)[C@@H]6OC [Aconitine]
- MATE1 (uptake ratio) (MATE1): 1.13
- MATE1 ratio (MATE1): 1.13
- MATE2 (uptake ratio) (MATE2K): 1.32
- MATE2K ratio (MATE2K): 1.32

SMILES: COc1cc(CCN)ccc1O [3-Methoxy-p-tyramine]
- MATE1 (uptake ratio) (MATE1): 4.05
- MATE1 ratio (MATE1): 4.05
- MATE2 (uptake ratio) (MATE2K): 1.39
- MATE2K ratio (MATE2K): 1.39

SMILES: NCCc1c[nH]c2ccccc12 [Tryptamine]
- MATE1 (MATE1): 2.21

SMILES: O=C(C[S+]([O-])Cc1ccco1)NC/C=C\COc1cc(CN2CCCCC2)ccn1 (stereo not drawn) [Lafutidine]
- MATE1 ratio (MATE1; [1]): 1.41
- MATE2K ratio (MATE2K; [1]): 1.48

SMILES: COc1nc(C)nc(Cl)c1N=C1NCCN1 [Moxonidine]
- MATE1 ratio (MATE1; [1]): 2.02
- MATE2K ratio (MATE2K; [1]): 1.78

SMILES: Oc1ccc(C2CNCCc3c2cc(O)c(O)c3Cl)cc1 (stereo not drawn) [Fenoldopam]
- MATE1 ratio (MATE1; [1]): 8.11
- MATE2K ratio (MATE2K; [1]): 4.17

SMILES: CC[N+](CC)(CC)CC [Tetraethyl ammonium (TEA), Tetraethyl ammonium]
- MATE1 ratio in this study (MATE1): 25.44
- MATE2K ratio in this study (MATE2K): 6.73

SMILES: CC(C)NCC(O)COc1ccc(CCOCC2CC2)cc1 (stereo not drawn) [Betaxolol]
- MATE1 ratio (MATE1; [1]): 1.37
- MATE1 (uptake ratio) (MATE1; [2]): 1.37
- MATE2K ratio (MATE2K; [1]): 1.43
- MATE2 (uptake ratio) (MATE2K; [3]): 1.43

SMILES: NCCCCNCCCN [Spermidine]
- MATE1 ratio (MATE1; [1]): 0.63
- MATE1 (MATE1; [4]): 0.63
- MATE2K ratio (MATE2K; [1]): 0.55
- MATE2 (MATE2K; [5]): 0.55

SMILES: NNCCc1ccccc1 [Phenelzine]
- MATE1 ratio (MATE1; [1]): 1.58
- MATE2K ratio (MATE2K; [1]): 1.91

SMILES: CO[C@H]1/C=C/O[C@@]2(C)Oc3c(C)c(O)c4c(O)c(c(/C=N/N5CCN(C)CC5)c(O)c4c3C2=O)NC(=O)/C(C)=C\C=C\[C@H](C)[C@H](O)[C@@H](C)[C@@H](O)[C@@H](C)[C@H](OC(C)=O)[C@@H]1C [Rifampicin]
- MATE1 ratio (MATE1; [1]): 1.02
- MATE1 (MATE1; [4]): 1.02
- MATE2K ratio (MATE2K; [1]): 0.93
- MATE2 (MATE2K; [5]): 0.93

SMILES: C[N+](C)(C)C[C@@H](CC(=O)[O-])OC(=O)CCC(=O)O [Succinylcarnitine]
- MATE1 ratio (MATE1; [1]): 0.54
- MATE1 (MATE1; [4]): 0.54
- MATE2K ratio (MATE2K; [1]): 1.38
- MATE2 (MATE2K; [5]): 1.38

SMILES: COC(=O)[C@@H]1[C@H]2CC[C@@H](C[C@@H]1O)N2C [Methylecgonine]
- MATE1 ratio (MATE1): 1.54
- MATE2K ratio (MATE2K): 1.36

SMILES: CC(C1=C(CCN(C)C)Cc2ccccc21)c1ccccn1 (stereo not drawn) [Dimethindene]
- MATE1 ratio (MATE1; [1]): 0.99
- MATE2K ratio (MATE2K; [1]): 1.02

SMILES: OCc1cc(C(O)CNCCCCCCOCCCCc2ccccc2)ccc1O (stereo not drawn) [Salmeterol]
- MATE1 ratio (MATE1; [1]): 1.78
- MATE1 (MATE1; [4]): 1.78
- MATE2K ratio (MATE2K; [1]): 1.17
- MATE2 (MATE2K; [5]): 1.17

SMILES: Cc1ccc(O)c([C@H](CCN(C(C)C)C(C)C)c2ccccc2)c1 [Tolterodine (R)]
- MATE2 (MATE2K): 1.06

SMILES: CCOc1ccccc1OCCN[C@H](C)Cc1ccc(OC)c(S(N)(=O)=O)c1 [Tamsulosin]
- MATE1 (MATE1; [4]): 1.4

SMILES: NCCS(=O)(=O)O [Taurine]
- MATE2 (MATE2K; [5]): 1.2

SMILES: NCCNCCNCCN [Triethylentetramine]
- MATE1 (MATE1; [4]): 0.65

SMILES: Cc1cc(C(C)(C)C)cc(C)c1CC1=NCCN1 [Xylometazoline]
- MATE1 (MATE1): 1.55

SMILES: CCN1CCC[C@H]1CNC(=O)c1cc(S(N)(=O)=O)ccc1OC [Sulpiride (S)]
- MATE2 (MATE2K): 18.54

SMILES: Cc1ccc(O)c(C(CCN(C(C)C)C(C)C)c2ccccc2)c1 (stereo in doubt) [Tolterodine (S)]
- MATE1 (MATE1): 1.16

SMILES: C#CCN(C)[C@H](C)Cc1ccccc1 [Selegiline (S), Selegiline]
- MATE2 (MATE2K): 1.08

SMILES: NC(=O)[C@@H]1CCCN1C(=O)[C@H](Cc1cnc[nH]1)NC(=O)[C@@H]1CCC(=O)N1 [Thyrotropin-Releasing-Hormon]
- MATE1 (MATE1; [4]): 1.71
